Assay results as given in US10875872B2, “Heteroaryl amide compounds as sting activators” (Incyte Corporation, priority 2018, dated 2020).

Test system: IRF3
Experiment: IRF3 activation assay in THP-1 Dual cells (QUANTI-Blue reporter)
Format: cell-based
Settings: Homo sapiens, THP1-Dual, 24 hours incubation, culture supernatant, absorbance at 620-655 nm
Experimental: THP-1 Dual Cells (Invivogen) were maintained in RPMI1640 medium with addition of 10% FBS, 100 μg/mL zeocin, 10 μg/mL blasticidin. Cells were added in a 96-well flat bottom assay plate at 100,000 per well in 100 μL complete RPMI medium. Test compounds were prepared by serial dilution in complete RPMI medium and 100 μL test compounds were transferred to each corresponding well. The assay plate was incubated at 37° C., 5% CO2 for 24 hours. After the overnight incubation, 20 μL of the culture supernatants were collected, followed by addition of 180 μL of QUANTI-Blue (Invivogen) to assess IRF3 activity. The amount of IRF3 activation was assessed by reading the absorbance at 620-655 nm with a microplate reader 2 hours later. The culture supernatant from the untreated THP-1 cells was used as the negative control. To determine the NF-κB activation, another 20 μL of culture supernatant were transferred to a 96-well white plate, followed by addition of 50 μL of Quanti-Lucim assay solution (Invivogen). The amount of NF-κB activation induced by the test compounds were determined by the luminescence above the untreated control. EC50 determination was performed by fitting the curve of percent control activity versus the log of the compound concentration using the GraphPad Prism 6.0 software.

EC50 [nM] | Compound
500 to 1000 | CCn1nc(C)cc1C(=O)Nc1nc2cc(C(N)=O)cc(C)c2n1C/C=C/Cn1c(NC(=O)c2cc(C)nn2CC)nc2cc(C(N)=O)c3c(c21)OCCO3 [Example 1, (E)-1-(4-(5-carbamoyl-2-(1-ethyl-3-methyl-1H-pyrazole-5-carboxamido)-7-methyl-1H-benzo[d]imidazol-1-yl)but-2-en-1-yl)-2-(1-ethyl-3-methyl-1H-pyrazole-5-carboxamido)-7,8-dihydro-1H-[1,4]dioxino[2′,3′:3,4]benzo[1,2-d]imidazole-5-carboxamide]
< 100 | CCn1nc(C)cc1C(=O)Nc1nc2cc(C(N)=O)cc(C)c2n1C/C=C/Cn1c(NC(=O)c2cc(C)nn2CC)nc2cc(C(N)=O)c3ccoc3c21 [Example 2, (E)-1-(4-(5-carbamoyl-2-(1-ethyl-3-methyl-1H-pyrazole-5-carboxamido)-7-methyl-1H-benzo[d]imidazol-1-yl)but-2-en-1-yl)-2-(1-ethyl-3-methyl-1H-pyrazole-5-carboxamido)-1H-benzofuro[6,7-d]imidazole-5-carboxamide]
< 100 | CCn1nc(C)cc1C(=O)Nc1nc2cc(C(N)=O)cc(OCCCOC(=O)NCCC(=O)O)c2n1C/C=C/Cn1c(NC(=O)c2cc(C)nn2CC)nc2cc(C(N)=O)c3ccoc3c21 [Example 3, (E)-3-(((3-((5-carbamoyl-1-(4-(5-carbamoyl-2-(1-ethyl-3-methyl-1H-pyrazole-5-carboxamido)-1H-benzofuro[6,7-d]imidazol-1-yl)but-2-en-1-yl)-2-(1-ethyl-3-methyl-1H-pyrazole-5-carboxamido)-1H-benzo[d]imidazol-7-yl)oxy)propoxy)carbonyl)amino)propanoic acid]
